{
  "source": "patent US20240174649A1",
  "about": "“CULLIN-RING E3 UBIQUITIN LIGASE 4 INHIBITOR COMPOUNDS AND METHODS OF THEIR USE” (ICAHN SCHOOL OF MEDICINE AT MOUNT SINAI, priority 2021, published 2024)",
  "key": {"E3 CRL4^CRBN": {"molecular_target": "E3 CRL4^CRBN (Homo sapiens (Human), UniProt Q13619)", "sequence (Q13619 whole entry)": "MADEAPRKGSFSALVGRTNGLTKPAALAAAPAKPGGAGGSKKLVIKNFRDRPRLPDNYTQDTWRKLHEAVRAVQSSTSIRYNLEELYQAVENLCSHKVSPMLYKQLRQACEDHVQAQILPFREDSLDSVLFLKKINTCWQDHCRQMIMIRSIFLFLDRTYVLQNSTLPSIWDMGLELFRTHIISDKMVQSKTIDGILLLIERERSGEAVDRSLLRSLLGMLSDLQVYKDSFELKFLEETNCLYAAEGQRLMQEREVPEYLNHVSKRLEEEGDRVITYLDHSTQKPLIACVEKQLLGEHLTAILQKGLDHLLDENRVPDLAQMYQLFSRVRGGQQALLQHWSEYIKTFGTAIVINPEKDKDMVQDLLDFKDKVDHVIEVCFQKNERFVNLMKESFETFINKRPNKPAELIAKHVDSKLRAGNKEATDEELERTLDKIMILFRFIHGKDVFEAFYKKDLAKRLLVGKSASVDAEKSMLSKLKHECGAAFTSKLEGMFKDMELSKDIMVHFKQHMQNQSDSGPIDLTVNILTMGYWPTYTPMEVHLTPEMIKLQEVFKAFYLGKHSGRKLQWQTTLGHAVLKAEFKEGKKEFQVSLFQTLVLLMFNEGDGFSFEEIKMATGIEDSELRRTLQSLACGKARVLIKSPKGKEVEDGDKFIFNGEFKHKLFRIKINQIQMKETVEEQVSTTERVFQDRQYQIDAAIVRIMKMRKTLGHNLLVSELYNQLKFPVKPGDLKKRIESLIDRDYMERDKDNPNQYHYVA", "sequence (P62877 whole entry partner)": "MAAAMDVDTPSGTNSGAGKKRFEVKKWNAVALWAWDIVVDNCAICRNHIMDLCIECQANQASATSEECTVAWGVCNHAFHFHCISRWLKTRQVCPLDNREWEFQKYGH", "sequence (Q16531 whole entry partner)": "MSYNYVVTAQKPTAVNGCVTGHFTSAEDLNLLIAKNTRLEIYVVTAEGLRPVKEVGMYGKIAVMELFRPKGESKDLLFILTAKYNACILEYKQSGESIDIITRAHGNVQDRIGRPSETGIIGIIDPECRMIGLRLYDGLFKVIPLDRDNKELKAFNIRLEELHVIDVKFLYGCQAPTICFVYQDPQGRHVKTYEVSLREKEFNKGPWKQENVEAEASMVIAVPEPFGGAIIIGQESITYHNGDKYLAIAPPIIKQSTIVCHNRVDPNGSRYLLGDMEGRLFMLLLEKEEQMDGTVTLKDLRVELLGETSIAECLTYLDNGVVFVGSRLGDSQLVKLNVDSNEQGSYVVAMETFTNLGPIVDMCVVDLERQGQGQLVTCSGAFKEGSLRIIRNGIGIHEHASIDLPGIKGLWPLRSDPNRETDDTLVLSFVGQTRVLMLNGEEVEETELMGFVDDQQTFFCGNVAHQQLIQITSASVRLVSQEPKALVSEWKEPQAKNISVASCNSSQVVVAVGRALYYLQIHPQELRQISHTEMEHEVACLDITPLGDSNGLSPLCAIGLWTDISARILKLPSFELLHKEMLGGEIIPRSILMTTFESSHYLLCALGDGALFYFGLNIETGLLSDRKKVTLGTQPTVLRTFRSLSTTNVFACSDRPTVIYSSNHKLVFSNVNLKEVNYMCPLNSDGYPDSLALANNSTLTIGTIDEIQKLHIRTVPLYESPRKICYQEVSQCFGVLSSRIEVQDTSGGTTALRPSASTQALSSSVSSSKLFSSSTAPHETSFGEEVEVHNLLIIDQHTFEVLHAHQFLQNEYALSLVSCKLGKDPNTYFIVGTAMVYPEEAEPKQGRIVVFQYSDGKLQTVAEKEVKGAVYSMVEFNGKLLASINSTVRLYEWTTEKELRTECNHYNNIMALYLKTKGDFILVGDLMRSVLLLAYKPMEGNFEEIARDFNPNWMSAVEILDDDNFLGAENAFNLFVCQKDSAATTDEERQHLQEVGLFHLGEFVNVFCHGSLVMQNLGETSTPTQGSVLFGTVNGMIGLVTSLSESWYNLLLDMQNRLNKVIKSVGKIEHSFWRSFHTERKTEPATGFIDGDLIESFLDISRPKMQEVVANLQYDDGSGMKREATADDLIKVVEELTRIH", "sequence (Q96SW2 whole entry partner)": "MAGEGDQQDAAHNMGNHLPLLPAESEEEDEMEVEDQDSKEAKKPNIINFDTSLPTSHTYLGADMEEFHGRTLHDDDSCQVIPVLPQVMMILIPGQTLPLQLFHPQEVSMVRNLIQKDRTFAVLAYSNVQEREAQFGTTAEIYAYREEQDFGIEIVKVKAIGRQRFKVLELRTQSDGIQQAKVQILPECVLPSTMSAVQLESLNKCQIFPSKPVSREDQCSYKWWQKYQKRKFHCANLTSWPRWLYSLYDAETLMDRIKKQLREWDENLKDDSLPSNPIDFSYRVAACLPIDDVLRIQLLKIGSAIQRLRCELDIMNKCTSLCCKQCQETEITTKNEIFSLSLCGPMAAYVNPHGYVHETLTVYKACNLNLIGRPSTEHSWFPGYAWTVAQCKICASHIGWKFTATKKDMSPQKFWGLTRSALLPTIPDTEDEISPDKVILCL", "assay": "Lenalidomide-dependent ubiquitination of CK1α by CRL4^CRBN", "assay_type": "biochemical", "description": "To prepare Flag-CK1α as a substrate for ubiquitination experiments described in FIGS. 2A-E, the expression vector (purchased from Addgene) was introduced to HEK-293T cells by transfection using Lipofectamine RNAIMAX (ThermoFisher) according to manufacturer's protocols. Cell extracts were prepared and the concentration of Flag-CK1α was determined using immunoblot analysis with purified GST-CK1α (Sigma) as a standard. Typically, 50-100 μl of extracts was used to attach to ˜15 μl of M2 beads (Sigma) at 4° C. for 2 hours. Unbound materials were removed by washing (first three times with a washing buffer containing 50 mM Tris-HCl, pH8.0, 1% Triton X-100, 0.5M NaCl, and then twice with buffer A plus 50 mM NaCl) and the resulting beads were used in the ubiquitination assay (15 μl). The concentration of Flag-CK1α was determined to be ˜100 nM.\nImmobilized, Flag-CK1α-containing beads were initially incubated with a reaction mixture (10 μl) containing 50 mM Tris-HCl (pH7.4), 0.5 mM DTT, 0.1 mg/ml of BSA, 5 mM MgCl2, 100 nM CRL4^CRBN, 1 μM Lenalidomide (Selleckchem), 1 μM Fluorescein-Ub, 100 nM E1, and 1 μM UbcH5c. ATP (20 mM) was added last to initiate the reaction. The reaction was incubated on a thermomixer (1,300 rpm; Eppendorf) at 37° C. for 5 min. The resulting beads were then added with a second reaction mixture (5 μl) containing 50 mM Tris-HCl (pH7.4), 0.5 mM DTT, 0.1 mg/ml of BSA, 5 mM MgCl2, 4 μM I-Ub-Q31C/K48R, and 1 μM Cdc34b, in the presence or absence of E3 inhibitors as specified. The reaction was incubated on a thermomixer at 37° C. for times as indicated. The concentrations of enzymes, Ubs, and compounds stated above were adjusted based on a final volume of 15 μl. The beads were then washed using conditions as described above. Materials eluted from the beads were separated by 4-20% SDS-PAGE followed by detection with fluorescence scanning (Typhoon 9500) or immunoblot using anti-CK1α antibody (Abcam). […]"}, "ROC1-CUL1": {"molecular_target": "ROC1-CUL1 (Homo sapiens (Human), UniProt Q13616)", "sequence (Q13616 whole entry)": "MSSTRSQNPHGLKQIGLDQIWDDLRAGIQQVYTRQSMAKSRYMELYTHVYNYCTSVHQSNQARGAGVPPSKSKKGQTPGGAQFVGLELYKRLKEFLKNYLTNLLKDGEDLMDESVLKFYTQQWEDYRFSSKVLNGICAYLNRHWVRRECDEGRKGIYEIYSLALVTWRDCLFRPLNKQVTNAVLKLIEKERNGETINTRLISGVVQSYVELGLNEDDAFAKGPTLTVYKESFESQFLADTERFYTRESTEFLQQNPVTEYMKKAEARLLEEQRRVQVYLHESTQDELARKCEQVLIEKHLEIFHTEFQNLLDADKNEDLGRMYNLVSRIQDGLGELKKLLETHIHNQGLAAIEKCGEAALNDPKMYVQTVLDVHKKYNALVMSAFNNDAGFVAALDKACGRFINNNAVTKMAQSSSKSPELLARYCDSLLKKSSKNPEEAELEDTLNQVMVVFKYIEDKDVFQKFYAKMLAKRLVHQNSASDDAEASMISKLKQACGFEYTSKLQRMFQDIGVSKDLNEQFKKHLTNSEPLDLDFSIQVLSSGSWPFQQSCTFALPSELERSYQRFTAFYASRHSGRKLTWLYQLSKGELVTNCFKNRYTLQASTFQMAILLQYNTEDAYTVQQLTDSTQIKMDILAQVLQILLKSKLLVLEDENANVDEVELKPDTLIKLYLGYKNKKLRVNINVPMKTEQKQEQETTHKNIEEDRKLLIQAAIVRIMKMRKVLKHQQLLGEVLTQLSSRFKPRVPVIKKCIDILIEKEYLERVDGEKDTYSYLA", "sequence (P62877 whole entry partner)": "as the sequence (P62877 whole entry partner) above", "assay": "Gel-based di-Ub synthesis", "assay_type": "biochemical", "description": "For the experiment shown in FIG. 7 and FIGS. 8A-B, the di-Ub synthesis reaction was carried out by preassembling the donor Ub mix. The donor Ub mixture (5 μl) contained 50 mM Tris HCl (pH 7.4), 5 mM MgCl2, 2 mM ATP, 0.5 mM DTT, 0.1 mg/mL BSA, 1 μM Ub-NC-I555, 0.1 μM E1, and 2 μM Cdc34b. The reaction was incubated for 5 min at 37° C. Compounds, in the amounts indicated, were added followed by the addition of ROC1-CUL1 (or related E3 subcomplex) in amounts as indicated and 10 μM PK-Ub (1-74) (as a receptor). The final volume was adjusted to 10 μl. The reaction was incubated for 10 min at 37° C.\nFor the experiments shown in FIG. 8C and FIG. 9, the reaction was assembled in a 10-μl mixture containing 50 mM Tris HCl (pH 7.4), 5 mM MgCl2, 0.5 mM DTT, 0.1 mg/mL BSA, 0.05 μM Ub-NC-I555, 2,5 μM PK-Ub (1-74), 0.1 μM E1, 1 μM Cdc34b, and 80 nM ROC1-CUL1 with or without compound. The reaction was initiated by the addition of 2 mM ATP. The products were separated by 4-20% SDS/PAGE and were visualized and quantified on a Typhoon FLA 9500 laser scanner (GE)."}, "cancer cells": {"test_system": "cancer cells", "assay": "Apoptosis, Annexin V flow cytometry", "assay_type": "cell-based", "method_in_brief": "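5×10^4 cells were seeded 24 h before treatment, then cultured with compound for 48 h. Pelleted cells were washed in Annexin V binding buffer (HEPES pH 7.4, with CaCl2) and stained in the dark with Annexin V-FITC (2 μg/ml) for 5 min. Apoptosis was read by flow cytometry.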"}, "CACO-2": {"test_system": "CACO-2", "assay": "CACO-2 permeability", "assay_type": "in vitro ADME", "conditions": "for PGP substrate: PGP-transporter (MDR1)", "description": "ADME studies on compounds #33-11 and KH-4-43 for “absorption, distribution, metabolism, and excretion” were carried out at CRO, BioDuro. Kinetic solubility, plasma and microsome stability in rat, mouse and human, as well as Caco-2 Permeability were examined."}, "Mouse i.p. PK": {"assay": "Mouse i.p. PK", "assay_type": "in vivo"}, "[1]": {"assay": "End-of-study PK in MV4-11 xenograft mice", "assay_type": "in vivo", "conditions": "mouse", "description": "Tumor tissues were weighed at the end of study. At the endpoint, 100 μl blood and tumors from Group 3 (G3) and Group 4 (G4) were collected as shown in the Table 3, for further pharmacokinetics or biomarker analysis. Plasma were isolated from all blood samples."}, "MV4-11 tumors": {"test_system": "MV4-11 tumors", "assay": "AML MV4-11 subcutaneous xenograft", "conditions": "for tumor inhibition value: IP"}},
  "data": [
    {"smiles": "O=c1c(-c2cnn(-c3ccccc3)c2)c(C(F)(F)F)oc2c(O)c(O)ccc12", "note": "[#33-11, 7,8-dihydroxy-3-(1-phenyl-1H-pyrazol-4-yl)-2-(trifluoromethyl)-4H-chromen-4-one]", "values": [
      {"measurement": "inhibition of ubiquitination of CK1α", "setting": "E3 CRL4^CRBN; at 30 μM", "result": "Significant inhibitory effects"},
      {"measurement": "level of di-Ub product", "setting": "ROC1-CUL1; up to 150 μM", "result": "remained almost unchanged"},
      {"measurement": "EC50", "setting": "cancer cells; Table 6", "result": 13, "unit": "µM"},
      {"measurement": "A:B/B:A", "setting": "CACO-2", "result": 1.95},
      {"measurement": "Permeability", "setting": "CACO-2", "result": "high"},
      {"measurement": "PGP substrate", "setting": "CACO-2", "result": "probable"},
      {"measurement": "Ctrough", "setting": "Mouse i.p. PK; i.p. 100 mg/kg in DMSO", "result": 0.16, "unit": "µM"},
      {"measurement": "T1/2", "setting": "Mouse i.p. PK; i.p. 100 mg/kg in DMSO", "result": 7.2, "unit": "h"},
      {"measurement": "AUC", "setting": "Mouse i.p. PK; i.p. 100 mg/kg in DMSO, 0-24 hr", "result": 19.6, "unit": "μM-hr"},
      {"measurement": "AUC", "setting": "[1]; tumor, mice dosed with #33-11, read-out: AUC in tumors", "result": 0.75, "unit": "µM·h"},
      {"measurement": "tumor growth inhibition", "setting": "MV4-11 tumors; earlier AML MV4-11 xenograft model study", "result": "did not reach statistically significant levels"}
    ]},
    {"smiles": "O=c1c(-c2cnn(-c3ccc(Cl)cc3)c2)c(C(F)(F)F)oc2c(O)c(O)ccc12", "note": "[KH-4-43, 3-(1-(4-chlorophenyl)-1H-pyrazol-4-yl)-7,8-dihydroxy-2-(trifluoromethyl)-4H-chromen-4-one]", "values": [
      {"measurement": "dose range inhibiting ubiquitination by CRL4", "setting": "E3 CRL4^CRBN", "result": "~10", "unit": "µM"},
      {"measurement": "discharge of Cdc34-Ub and production of Ub2 by ROC1-CUL1", "setting": "ROC1-CUL1", "result": "no effect"},
      {"measurement": "EC50", "setting": "cancer cells; Table 1", "result": 4, "unit": "µM"},
      {"measurement": "EC50", "setting": "cancer cells; Table 6", "result": 8, "unit": "µM"},
      {"measurement": "Permeability", "setting": "CACO-2", "result": "highly permeable and high"},
      {"measurement": "PGP substrate", "setting": "CACO-2", "result": "not a substrate"},
      {"measurement": "24 hr C-trough concentration", "setting": "Mouse i.p. PK; i.p. 100 mg/kg", "result": 89, "unit": "nM"},
      {"measurement": "tolerability", "setting": "Mouse i.p. PK; i.p. 100 mg/kg", "result": "well tolerated"},
      {"measurement": "Ctrough", "setting": "Mouse i.p. PK; i.p. 100 mg/kg in DMSO", "result": 0.09, "unit": "µM"},
      {"measurement": "AUC", "setting": "[1]; BALB/c nude, plasma, ip, G3, 50 mg/kg Q2D, read-out: AUC over 24 hours in plasma", "result": "~3.3", "unit": "µM·h"},
      {"measurement": "AUC", "setting": "[1]; BALB/c nude, tumor, ip, G4, 50 mg/kg QD, read-out: AUC over 24 hours in tumor", "result": "~4.7", "unit": "µM·h"},
      {"measurement": "tumor AUC higher than with #33-11", "setting": "[1]; in vivo", "result": 6, "unit": "fold"},
      {"measurement": "tumor inhibition value", "setting": "MV4-11 tumors; G2, 25 mg/kg, Q2D", "result": 18.60, "unit": "%"},
      {"measurement": "tumor inhibition value", "setting": "MV4-11 tumors; G3, 50 mg/kg, Q2D", "result": 25.15, "unit": "%"},
      {"measurement": "tumor inhibition value", "setting": "MV4-11 tumors; G4, 50 mg/kg, QD", "result": 38.90, "unit": "%"},
      {"measurement": "safety by body weight loss guideline (>20% toxic)", "setting": "MV4-11 tumors; tested dose levels 25 and 50 mg/kg", "result": "judged to be safe"}
    ]}
  ]
}
